The Kd is the constant that tells how readily two partners part at equilibrium. A higher Kd goes with a looser complex. Usually IC50 stands for the concentration that inhibits the measured activity by half.

Test [1] deals with T1, Human C5 (Homo sapiens, UniProt P01031).
T1 construct: purchased Complement Technology
Put plainly: Surface plasmon resonance (SPR), compounds on immobilized human C5 (Example 2, Table 5). Type of test: binding. Conditions: lowest value where a range of compound concentrations were analyzed. For orientation: Surface plasmon resonance follows binding to a sensor surface in real time, without labels.
Procedure: Surface plasmon resonance (SPR) technology was used to evaluate affinity, specificity, and kinetics of interactions between compounds and complement protein C5 in real time without the need for labeling.
SensiQ FE SPR system (SensiQ Technologies, Oklahoma City, Okla.) was used to provide sensitive and accurate detection of binding of small molecules to the very large C5 protein (MW=195,000 Da). The chip was prepared by preconditioning the sensor according to the protocol of the SensiQ FE using 10 mM HCl, 50 mM NAOH and 0.1% SDS. The sensor chip was activated by using a mixture of fresh EDAC (1-ethyl-3-(-3-dimethylaminopropyl) carbodiimide) (Sigma Co., St. Louis, Mo.) and NHS (N-hydroxy succinimide) (Sigma Co., St. Louis, Mo.). Human C5 was surface immobilized to a Pioneer Biosensor chip via random amine coupling (>12,000 RU) which makes use of the N-terminus and ε-amino groups of lysine residues of the protein ligand. Immobilization was done by injecting 30-40 μg/ml C5 in 10 mM NaAc pH 4.5 onto designated channels at a rate of 10 μL/minute for 12 minutes, targeting RL>12000 RU for small molecules.
Compounds were diluted in DMSO in a format of 100-fold final concentration and 3-fold serial dilution (5 or 6 dilutions). The 100-fold compounds were transferred to one-fold DMSO-free assay buffer in the 96-well test plate. The compound solution was injected at a rate of 60 μL/minute for 30-60 seconds, followed by 60-90 seconds dissociation time, buffer flushing and/or priming. Blank solution (1% DMSO assay buffer) was run for every 6 injections of compounds. Double reference by subtracting both blank channel and reference channel was applied for data processing. Titration of C5 binding compounds to the C5-immobilized biosensor chip surface led to interactions between C5 and potential binders, and the resulting changes of surface refractive index were sensitively measured by the system.
SPR data were analyzed with the managing software provided by SensiQ and equilibrium dissociation constant (KD) values were determined for each compound. Where a range of compound concentrations were analyzed, the lowest value obtained is presented.

For test [2], the target named is purified human C5 (Homo sapiens, UniProt P01031). The experiment in a line: Red blood cell hemolysis assay, optical, absorbance 412 nm (Example 3, Table 6). The test is classed as cell-based. Particulars: antibody-sensitized sheep erythrocytes, 1.5% human C5 depleted sera, 0.5 nM human C5; average where replicates.
purified human C5, sequence (P01031 19-1676): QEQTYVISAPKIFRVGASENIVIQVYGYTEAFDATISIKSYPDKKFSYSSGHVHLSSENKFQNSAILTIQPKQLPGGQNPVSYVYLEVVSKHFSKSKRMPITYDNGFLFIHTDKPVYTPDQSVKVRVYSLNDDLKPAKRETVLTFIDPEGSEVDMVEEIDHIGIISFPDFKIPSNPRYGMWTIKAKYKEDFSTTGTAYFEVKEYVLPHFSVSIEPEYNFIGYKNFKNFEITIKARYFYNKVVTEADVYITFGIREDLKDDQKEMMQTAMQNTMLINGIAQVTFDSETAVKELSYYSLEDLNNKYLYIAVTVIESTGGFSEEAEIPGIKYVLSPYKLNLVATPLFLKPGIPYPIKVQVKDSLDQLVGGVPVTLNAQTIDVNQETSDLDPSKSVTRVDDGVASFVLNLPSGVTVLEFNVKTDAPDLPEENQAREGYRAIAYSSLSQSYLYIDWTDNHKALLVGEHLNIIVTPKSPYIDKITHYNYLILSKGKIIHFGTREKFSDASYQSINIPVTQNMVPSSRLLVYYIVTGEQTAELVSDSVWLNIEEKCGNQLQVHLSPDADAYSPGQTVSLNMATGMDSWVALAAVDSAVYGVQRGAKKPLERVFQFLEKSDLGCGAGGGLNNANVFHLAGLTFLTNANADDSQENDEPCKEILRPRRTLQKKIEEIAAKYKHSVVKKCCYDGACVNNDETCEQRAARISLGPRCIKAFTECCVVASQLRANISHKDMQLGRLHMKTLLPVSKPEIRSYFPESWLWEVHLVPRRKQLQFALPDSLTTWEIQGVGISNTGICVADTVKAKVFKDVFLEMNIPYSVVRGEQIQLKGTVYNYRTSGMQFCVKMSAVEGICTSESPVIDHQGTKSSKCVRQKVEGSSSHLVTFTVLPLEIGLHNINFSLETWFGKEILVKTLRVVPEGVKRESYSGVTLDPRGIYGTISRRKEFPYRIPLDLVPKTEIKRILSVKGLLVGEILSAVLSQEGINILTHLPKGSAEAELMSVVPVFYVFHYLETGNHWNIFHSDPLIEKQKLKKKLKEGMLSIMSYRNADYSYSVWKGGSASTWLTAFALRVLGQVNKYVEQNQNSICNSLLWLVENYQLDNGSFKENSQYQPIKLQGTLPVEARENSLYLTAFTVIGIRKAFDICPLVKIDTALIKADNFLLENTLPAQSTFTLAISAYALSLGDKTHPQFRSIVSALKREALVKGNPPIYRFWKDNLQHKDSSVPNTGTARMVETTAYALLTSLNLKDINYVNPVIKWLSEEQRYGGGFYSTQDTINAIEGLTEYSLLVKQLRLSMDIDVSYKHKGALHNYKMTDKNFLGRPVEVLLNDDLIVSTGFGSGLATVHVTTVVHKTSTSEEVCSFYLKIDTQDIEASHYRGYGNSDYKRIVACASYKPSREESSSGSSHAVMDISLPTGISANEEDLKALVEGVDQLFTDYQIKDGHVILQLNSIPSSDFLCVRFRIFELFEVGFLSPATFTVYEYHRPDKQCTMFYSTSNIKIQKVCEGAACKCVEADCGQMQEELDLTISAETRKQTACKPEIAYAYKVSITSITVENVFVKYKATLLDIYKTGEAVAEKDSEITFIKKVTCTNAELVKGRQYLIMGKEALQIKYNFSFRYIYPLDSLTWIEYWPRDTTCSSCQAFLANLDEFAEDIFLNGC
Procedure: Experiments were carried out using a red blood cell (RBC) hemolysis assay to assess compound inhibition of RBC lysis. […] The assay was carried out using 1.5% human C5 depleted sera and 0.5 nM purified human C5.
GVB++ buffer (Complement Technology, Tyler, Tex.) was heated at 37° C. for a minimum of 20 minutes. The human C5 depleted sera and purified human C5 were rapidly thawed at 37° C. and then stored on ice or wet ice, respectively. The compound stock (10 mM, DMSO) was serially diluted in 100% DMSO to obtain ten 6-fold dilutions before addition of GVB++. Sera dilution was prepared by adding 5 mL of GVB++ to a 15 mL conical tube, removing 600 μL of the GVB++ and adding 600 μL of the 100% sera. The tube was mixed by inverting three times. A volume of 25 μL of the diluted sera was added to each well so that the final concentration of sera in the well was 1.5%. C5 dilution was prepared by adding 5 mL of GVB++ to a 15 mL conical tube, removing 4 μL of the GVB++ and adding 4 μL of the C5 stock. The tube was mixed by inverting three times. A volume of 25 μL was added to each well so that the final amount of C5 was 0.5 nM in each well. The antibody-sensitized sheep erythrocytes (EAs) were centrifuged at 1,000× gravity at 22° C. for 3 minutes. The supernatant was pipetted off without disrupting the pellet. The pellet was then resuspended in GVB++ with the same volume removed. Resuspended EAs were mixed by gently inverting the tube.
Five controls were run on each plate: (1) EAs only=100 μL EAs+50 μL GVB++ with 4% DMSO+50 μL GVB++; (2) EA+Sera=100 μL EAs+50 μL GVB++ with 4% DMSO+25 μL Sera dilution+25 μL GVB++; (3) EA+C5=100 μL EAs+50 μL GVB++ with 4% DMSO+25 μL C5 dilution+25 μL GVB++; (4) EA+Sera+C5=100 μL EAs+50 μL GVB++ with 4% DMSO+25 μL Sera dilution+25 μL C5; (5) GVB++ Only=200 μL GVB++. Other wells included: GVB++ with 4% DMSO=20 μL DMSO+480 μL GVB++. All samples were analyzed in duplicate. The compound dose response curve was generated using samples prepared with 100 μL EA+50 μL compound dilution+25 μL C5 dilution+25 μL sera dilution.
Test plates were prepared by adding 100 μL of EAs, 50 μL of compound dilution, 25 μL of sera dilution, and 25 μL of C5 dilution to individual wells of a 96-well tissue culture-treated clear microtitre plate (USA Scientific, Ocala, Fla.) and resuspending by pipetting up and down three times. The samples were incubated at 37° C. for one hour. At the completion of the incubation, the plates were centrifuged at 1,000× gravity for 3 minutes. 100 μl of supernatant were transferred to a new plate and the absorbance was read at 412 nm. Data was fit with a log-logit formula producing a dose-response curve and IC50.
“IC50” refers to the half maximal inhibitory concentration, where the value is the concentration of the inhibitor needed to reduce red blood cell hemolysis by half. Where replicate analysis was conducted, average IC50 values are provided along with standard deviation (SD) values.

T1 sequence (P01031 19-1676): as above

The compound `COc1ccc(NC(=O)NC(CO)c2ccc(Cl)cc2)cc1OCCCC(C)C` (stereo not drawn) came in with a Kd in test [1] of 320 nM. For the same compound, in test [2], the IC50 is 3390 nM.

The compound `COc1ccc(NC(=O)NC(CO)c2ccccc2OC)cc1OCCCC(C)C` (stereo not drawn) [SM0003] displayed a Kd in test [1] of 14 nM. The IC50 in test [2] turned out to be 26.8 nM.

The compound `COc1ccc(NC(=O)NCc2ccccc2O)cc1OCCCC(C)C` [SM0004] had a Kd in test [1] of 28 nM. For the same compound, the IC50 in test [2] came to 42.6 nM. For `COc1ccc(NC(=O)NCc2ccccc2O)cc1CCCCC(C)C` [SM0005] the same measures were 37 nM and 65.8 nM. Consider `COc1ccc(NC(=O)NCc2ccccc2OC)cc1CCCCC(C)C` [SM0007], for which binding in test [1] was characterised by a dissociation constant (Kd) of 90 nM. The IC50 in test [2] came to 165 nM. For `COc1ccc([C@H](CO)NC(=O)Nc2ccc(OC)c(OCCCC(C)C)c2)cc1` [SM0008] the same measures were 45 nM and 176 nM. For `COc1ccc(NC(=O)N[C@@H](C)c2ccccc2)cc1OCCCC(C)C` [SM0009] the same measures were 647 nM and 198 nM. For `COc1ccc(NC(=O)N[C@@H](CO)c2ccccc2)cc1CCCCC(C)C` [SM0010] the same measures were 107 nM and 226 nM. On to `COc1ccc(NC(=O)NCc2ccnc3[nH]ccc23)cc1OCCCC(C)C` [SM0013], for which the Kd in test [1] came to 17 nM. Further, in test [2], the concentration for half-maximal inhibition (IC50) came out at 327 nM. For `COc1ccc(NC(=O)N[C@@H](CO)c2ccccc2)cc1C#CCCC(C)C` [SM0014] the same measures were 63 nM and 335 nM. The compound `COc1ccc(NC(=O)NCc2ccc(O)c(O)c2)cc1OCCCC(C)C` [SM0015] had a Kd in test [1] of 196 nM. In addition, in test [2], the IC50 stood at 342 nM.

Regarding `COc1ccc(NC(=O)NCc2cccc(O)c2)cc1OCCCC(C)C` [SM0016], in test [1], the Kd turned out to be 290 nM. In test [2], the IC50 amounted to 378 nM. In the case of `COc1ccc(NC(=O)NCc2ccc(O)cc2)cc1OCCCC(C)C` [SM0017], in test [1], the Kd amounted to 111 nM. Moreover, in test [2], the IC50 turned out to be 401 nM. The compound `COc1ccc(NC(=O)NC(CO)c2cccc(F)c2)cc1OCCCC(C)C` (stereo not drawn) [SM0018] showed a Kd in test [1] of 114 nM. Also, the half-maximal inhibitory concentration (IC50) in test [2] amounted to 420 nM.

In test [1], `COc1ccc(NC(=O)N[C@@H](CO)c2ccccc2)cc1OCCC1CCCC1` [SM0019] registered a Kd of 39 nM. Also, the IC50 in test [2] was found to be 450 nM. For the compound `COc1ccc(NC(=O)N(C)Cc2ccccc2)cc1OCCCC(C)C` [SM0021], the affinity in test [1], expressed as Kd, was 368 nM. In addition, in test [2], the IC50 was 533 nM. For `COc1ccc(NC(=O)NCc2ccc3[nH]ccc3c2)cc1OCCCC(C)C` [SM0022] the same measures were 84 nM and 581 nM.

Take `COc1ccc(NC(=O)N[C@@H](CO)c2ccc(F)cc2)cc1OCCCC(C)C` [SM0023]: in test [1], the affinity, expressed as Kd, was 92 nM. In addition, the IC50 in test [2] turned out to be 608 nM. For `COc1ccc(NC(=O)NC(CO)c2ccccc2F)cc1OCCCC(C)C` (stereo not drawn) [SM0024] the same measures were 130 nM and 614 nM. For `COc1ccc(NC(=O)N[C@@H](CO)c2ccccc2)cc1OCCCCC(F)(F)F` [SM0025] the same measures were 620 nM and 675 nM. For `COc1ccc(NC(=O)NCc2ccccc2)cc1OCCCC(C)C` [SM0026] the same measures were 97 nM and 685 nM. `COc1ccc(NC(=O)N2CCC[C@H]2c2ccccc2)cc1OCCCC(C)C` [SM0027] gave a Kd in test [1] of 171 nM. In addition, the IC50 in test [2] came to 697 nM. For `COc1ccc(NC(=O)NC(CO)c2ccccc2F)cc1CCCCC(C)C` (stereo not drawn) [SM0029] the same measures were 239 nM and 901 nM. For `COc1cc(CNC(=O)Nc2ccc(OC)c(OCCCC(C)C)c2)ccc1O` [SM0030] the same measures were 190 nM and 936 nM. For `COc1ccc(NC(=O)NCc2ccncc2)cc1OCCCC(C)C` [SM0031] the same measures were 2700 nM and 983 nM. `COc1ccc(NC(=O)NC(CO)c2ccco2)cc1OCCCC(C)C` (stereo not drawn) [SM0032]: the affinity in test [1], expressed as Kd, was 25 nM. Besides, in test [2], the IC50 was 1040 nM. For `COc1ccc(NC(=O)N[C@@H](CO)c2ccccc2)cc1OCCCCCC(C)C` [SM0033], binding in test [1] was put at a Kd of 410 nM. The IC50 in test [2] was found to be 1100 nM. For `C=CCCOc1cc(NC(=O)N[C@@H](CO)c2ccccc2)ccc1OC` [SM0034] the same measures were 1400 nM and 1100 nM.

On to `COc1ccc(NC(=O)NC(CO)c2ccccc2C)cc1OCCCC(C)C` (stereo not drawn) [SM0036], for which the Kd in test [1] was 4300 nM. Also, in test [2], the 50% inhibitory concentration (IC50) is 1240 nM. Regarding `COc1ccc(NC(=O)NC(C)c2cccnc2)cc1OCCCC(C)C` (stereo not drawn) [SM0037], binding in test [1] was characterised by a dissociation constant (Kd) of 628 nM. In addition, the IC50 in test [2] was found to be 1320 nM. For `COc1ccc(NC(=O)N[C@@H](CO)c2ccccc2)cc1OCC(C)CC(C)C` (stereo partly drawn) [SM0038] the same measures were 800 nM and 1480 nM. For `COc1ccc(NC(=O)NCc2ccsc2)cc1OCCCC(C)C` [SM0039] the same measures were 210 nM and 1490 nM.

With `COc1ccc(NC(=O)NC(CO)c2ccccn2)cc1OCCCC(C)C` (stereo not drawn) [SM0040], in test [1], the affinity, expressed as Kd, was 110 nM. The IC50 in test [2] came to 1620 nM.

`COc1ncc(NC(=O)N[C@@H](CO)c2ccccc2)cc1OCCCC(C)C` [SM0042]: in test [1], binding was characterised by a dissociation constant (Kd) of 6400 nM. In addition, the IC50 in test [2] was found to be 2130 nM.

For the compound `COc1ccc(NC(=O)NCc2ccc(CN(C)C)cc2)cc1OCCCC(C)C` [SM0043], the Kd in test [1] came to 1930 nM. Further, the IC50 in test [2] came to 2140 nM. `COc1ccc(NC(=O)NCc2cccc3ncccc23)cc1OCCCC(C)C` [SM0044] showed a dissociation constant (Kd) in test [1] of 74 nM. Also, the IC50 in test [2] came to 2180 nM. For `COc1ccc(NC(=O)NCc2ccccn2)cc1OCCCC(C)C` [SM0045] the same measures were 2800 nM and 2230 nM.

In test [1], `COc1ccc(NC(=O)NCc2ccncc2)cc1C#CCCC(C)C` [SM0046] came in with a Kd of 8600 nM. Besides, in test [2], the IC50 was 2240 nM. For `COc1cccc(CNC(=O)Nc2ccc(OC)c(OCCCC(C)C)c2)c1` [SM0047] the same measures were 830 nM and 2270 nM. For `COc1ccc(NC(=O)NCc2ccc(S(N)(=O)=O)cc2)cc1OCCCC(C)C` [SM0048] the same measures were 7200 nM and 2540 nM. For `COc1ccc(NC(=O)NCc2cccnc2)cc1OCCCC(C)C` [SM0049] the same measures were 4100 nM and 2790 nM. Compound `COc1ccc(NC(=O)NCc2ccccc2CO)cc1OCCCC(C)C` [SM0050] displayed a Kd in test [1] of 102 nM. Also, in test [2], the IC50 was 2870 nM. In turn, `COc1ccc(NC(=O)NCc2cccs2)cc1OCCCC(C)C` [SM0052] gave a Kd in test [1] of 564 nM. Moreover, the IC50 in test [2] turned out to be 3100 nM.

Regarding `COc1ccc(NC(=O)N[C@@H](CO)c2ccccc2)cc1OCCOC1CCC1` [SM0053], the Kd in test [1] was 3350 nM. In addition, the IC50 in test [2] was found to be 3380 nM. Consider `COc1ccc(NC(=O)NCc2cccc(S(C)(=O)=O)c2)cc1OCCCC(C)C` [SM0079], for which the IC50 in test [2] was 12700 nM. Regarding `COc1ccc(NC(=O)NC(c2ccccc2F)C(C)O)cc1OCCCC(C)C` (stereo not drawn) [SM0082], the IC50 in test [2] is 14500 nM.

Take `COc1ccc(NC(=O)N[C@@H](CO)c2ccccc2)cc1OCC(F)(F)F` [SM0085]: in test [2], the IC50 came to 16100 nM.

As for `COc1ccc(NC(=O)NCc2ccc3ccccc3n2)cc1OCCCC(C)C` [SM0086], the IC50 in test [2] came out at 16600 nM. Still for that read-out and setting: for `COc1ccc(NC(=O)N[C@@H](CO)c2ccccc2)cc1OCc1ccccc1` [SM0088] the value was 18400 nM.

For the origin of these results see patent US20230115176A1 (Ra Pharmaceuticals, Inc., priority 2019, published 2023).
